Source: PMC7156458, “Synthetic biology based construction of biological activity-related library of fungal decalin-containing diterpenoid pyrones” (Nature Communications, 2020)

Biological target: Aβ42 (Homo sapiens, UniProt P05067)
Test: Th-T (thioflavin-T) assay of Aβ42 aggregation
Assay type: biochemical
Details: for Th-T fluorescence of Aβ42 (sheet Fig. 7a), mean of three wells: head suffix _50 (concentration 50); for Th-T assay plate reading, mean of three wells (Supplementary Fig. 47): source data, Ab alone and No Ab as controls; for Th-T fluorescence, mean of three wells: Supplementary Fig. 47 source data

Chain of Aβ42 (P05067 672-713): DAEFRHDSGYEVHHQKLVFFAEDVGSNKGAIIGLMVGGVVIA

C=C1CC[C@@H]2[C@](C)(CC[C@H]3O[C@H](C=C(C)C)C[C@@]23C)[C@@H]1Cc1c(OC)oc(CO)c(C(=O)OC)c1=O [Compound 21]
Th-T fluorescence of Aβ42 (sheet Fig. 7a), mean of three wells (reading M73): 0.2746
Th-T fluorescence of Aβ42 (sheet Fig. 7a), mean of three wells (reading M74): 0.2806
Th-T fluorescence of Aβ42 (sheet Fig. 7a), mean of three wells (reading M75): 0.286
Th-T fluorescence of Aβ42 (sheet Fig. 7a), mean of three wells (reading M76): 0.2937
Th-T fluorescence of Aβ42 (sheet Fig. 7a), mean of three wells (reading M77): 0.3019
Th-T fluorescence of Aβ42 (sheet Fig. 7a), mean of three wells (reading M78): 0.3119
Th-T fluorescence of Aβ42 (sheet Fig. 7a), mean of three wells (reading M79): 0.3191
Th-T fluorescence of Aβ42 (sheet Fig. 7a), mean of three wells (reading M80): 0.3266
Th-T fluorescence of Aβ42 (sheet Fig. 7a), mean of three wells (reading M81): 0.339
Th-T fluorescence of Aβ42 (sheet Fig. 7a), mean of three wells (reading M82): 0.3487
Th-T fluorescence of Aβ42 (sheet Fig. 7a), mean of three wells (reading M83): 0.3612
Th-T fluorescence of Aβ42 (sheet Fig. 7a), mean of three wells (reading M84): 0.3714
Th-T assay plate reading, mean of three wells (Supplementary Fig. 47) (measurement M1): 0.221
Th-T assay plate reading, mean of three wells (Supplementary Fig. 47) (measurement M2): 0.2228
Th-T assay plate reading, mean of three wells (Supplementary Fig. 47) (measurement M3): 0.2221
Th-T assay plate reading, mean of three wells (Supplementary Fig. 47) (measurement M4): 0.222
Th-T assay plate reading, mean of three wells (Supplementary Fig. 47) (measurement M5): 0.2108
Th-T assay plate reading, mean of three wells (Supplementary Fig. 47) (measurement M6): 0.2062
Th-T assay plate reading, mean of three wells (Supplementary Fig. 47) (measurement M7): 0.1997
Th-T assay plate reading, mean of three wells (Supplementary Fig. 47) (measurement M8): 0.1959
Th-T assay plate reading, mean of three wells (Supplementary Fig. 47) (measurement M9): 0.193
Th-T assay plate reading, mean of three wells (Supplementary Fig. 47) (measurement M10): 0.1931
Th-T assay plate reading, mean of three wells (Supplementary Fig. 47) (measurement M11): 0.1918
Th-T assay plate reading, mean of three wells (Supplementary Fig. 47) (measurement M12): 0.1925
Th-T assay plate reading, mean of three wells (Supplementary Fig. 47) (measurement M13): 0.1929
Th-T assay plate reading, mean of three wells (Supplementary Fig. 47) (measurement M14): 0.1925
Th-T assay plate reading, mean of three wells (Supplementary Fig. 47) (measurement M15): 0.1938
Th-T assay plate reading, mean of three wells (Supplementary Fig. 47) (measurement M16): 0.1946
Th-T fluorescence, mean of three wells (Fig. 7a) (reading M107, compound at 10 (head suffix _10)): 1.6819
Th-T fluorescence, mean of three wells (Fig. 7a) (reading M107, compound at 20 (head suffix _20)): 0.9322
Th-T fluorescence, mean of three wells (Fig. 7a) (reading M107, compound at 50 (head suffix _50)): 0.4795
Th-T fluorescence, mean of three wells (Fig. 7a) (reading M108, compound at 10 (head suffix _10)): 1.643
Th-T fluorescence, mean of three wells (Fig. 7a) (reading M108, compound at 20 (head suffix _20)): 0.9316
Th-T fluorescence, mean of three wells (Fig. 7a) (reading M108, compound at 50 (head suffix _50)): 0.4805
Th-T fluorescence, mean of three wells (Fig. 7a) (reading M109, compound at 10 (head suffix _10)): 1.641
Th-T fluorescence, mean of three wells (Fig. 7a) (reading M109, compound at 20 (head suffix _20)): 0.9416
Th-T fluorescence, mean of three wells (Fig. 7a) (reading M109, compound at 50 (head suffix _50)): 0.4841
Th-T fluorescence, mean of three wells (Fig. 7a) (reading M110, compound at 10 (head suffix _10)): 1.6563
Th-T fluorescence, mean of three wells (Fig. 7a) (reading M110, compound at 20 (head suffix _20)): 0.9358
Th-T fluorescence, mean of three wells (Fig. 7a) (reading M110, compound at 50 (head suffix _50)): 0.4823
Th-T fluorescence, mean of three wells (Fig. 7a) (reading M111, compound at 10 (head suffix _10)): 1.67
Th-T fluorescence, mean of three wells (Fig. 7a) (reading M111, compound at 20 (head suffix _20)): 0.9311
Th-T fluorescence, mean of three wells (Fig. 7a) (reading M111, compound at 50 (head suffix _50)): 0.4866
Th-T fluorescence, mean of three wells (Fig. 7a) (reading M112, compound at 10 (head suffix _10)): 1.658
Th-T fluorescence, mean of three wells (Fig. 7a) (reading M112, compound at 20 (head suffix _20)): 0.9334
Th-T fluorescence, mean of three wells (Fig. 7a) (reading M112, compound at 50 (head suffix _50)): 0.4858
Th-T fluorescence, mean of three wells (Fig. 7a) (reading M113, compound at 10 (head suffix _10)): 1.671
Th-T fluorescence, mean of three wells (Fig. 7a) (reading M113, compound at 20 (head suffix _20)): 0.9626
Th-T fluorescence, mean of three wells (Fig. 7a) (reading M113, compound at 50 (head suffix _50)): 0.4847
Th-T fluorescence, mean of three wells (Fig. 7a) (reading M114, compound at 10 (head suffix _10)): 1.656
Th-T fluorescence, mean of three wells (Fig. 7a) (reading M114, compound at 20 (head suffix _20)): 0.941
Th-T fluorescence, mean of three wells (Fig. 7a) (reading M114, compound at 50 (head suffix _50)): 0.488
Th-T fluorescence, mean of three wells (Fig. 7a) (reading M115, compound at 10 (head suffix _10)): 1.673
Th-T fluorescence, mean of three wells (Fig. 7a) (reading M115, compound at 20 (head suffix _20)): 0.9605
Th-T fluorescence, mean of three wells (Fig. 7a) (reading M115, compound at 50 (head suffix _50)): 0.4915
Th-T fluorescence, mean of three wells (Fig. 7a) (reading M116, compound at 10 (head suffix _10)): 1.71
Th-T fluorescence, mean of three wells (Fig. 7a) (reading M116, compound at 20 (head suffix _20)): 0.9595
Th-T fluorescence, mean of three wells (Fig. 7a) (reading M116, compound at 50 (head suffix _50)): 0.4913
Th-T fluorescence, mean of three wells (Fig. 7a) (reading M117, compound at 10 (head suffix _10)): 1.657
Th-T fluorescence, mean of three wells (Fig. 7a) (reading M117, compound at 20 (head suffix _20)): 0.9521
Th-T fluorescence, mean of three wells (Fig. 7a) (reading M117, compound at 50 (head suffix _50)): 0.4909
Th-T fluorescence, mean of three wells (Fig. 7a) (reading M118, compound at 10 (head suffix _10)): 1.7
Th-T fluorescence, mean of three wells (Fig. 7a) (reading M118, compound at 20 (head suffix _20)): 0.9478
Th-T fluorescence, mean of three wells (Fig. 7a) (reading M118, compound at 50 (head suffix _50)): 0.4918
Th-T fluorescence, mean of three wells (Fig. 7a) (reading M119, compound at 10 (head suffix _10)): 1.686
Th-T fluorescence, mean of three wells (Fig. 7a) (reading M119, compound at 20 (head suffix _20)): 0.9445
Th-T fluorescence, mean of three wells (Fig. 7a) (reading M119, compound at 50 (head suffix _50)): 0.4929
Th-T fluorescence, mean of three wells (Fig. 7a) (reading M120, compound at 10 (head suffix _10)): 1.675
Th-T fluorescence, mean of three wells (Fig. 7a) (reading M120, compound at 20 (head suffix _20)): 0.9469
Th-T fluorescence, mean of three wells (Fig. 7a) (reading M120, compound at 50 (head suffix _50)): 0.4937
Th-T fluorescence, mean of three wells (Fig. 7a) (reading M121, compound at 10 (head suffix _10)): 1.7005
Th-T fluorescence, mean of three wells (Fig. 7a) (reading M121, compound at 20 (head suffix _20)): 0.9507
Th-T fluorescence, mean of three wells (Fig. 7a) (reading M121, compound at 50 (head suffix _50)): 0.4951
Th-T fluorescence, mean of three wells (Fig. 7a) (reading M122, compound at 10 (head suffix _10)): 1.701
Th-T fluorescence, mean of three wells (Fig. 7a) (reading M122, compound at 20 (head suffix _20)): 0.9556
Th-T fluorescence, mean of three wells (Fig. 7a) (reading M122, compound at 50 (head suffix _50)): 0.493
Th-T fluorescence, mean of three wells (Fig. 7a) (reading M123, compound at 10 (head suffix _10)): 1.651
Th-T fluorescence, mean of three wells (Fig. 7a) (reading M123, compound at 20 (head suffix _20)): 0.9514
Th-T fluorescence, mean of three wells (Fig. 7a) (reading M123, compound at 50 (head suffix _50)): 0.4951
Th-T fluorescence, mean of three wells (Fig. 7a) (reading M124, compound at 10 (head suffix _10)): 1.705
Th-T fluorescence, mean of three wells (Fig. 7a) (reading M124, compound at 20 (head suffix _20)): 0.9577
Th-T fluorescence, mean of three wells (Fig. 7a) (reading M124, compound at 50 (head suffix _50)): 0.4977
Th-T fluorescence, mean of three wells (Fig. 7a) (reading M125, compound at 10 (head suffix _10)): 1.692
Th-T fluorescence, mean of three wells (Fig. 7a) (reading M125, compound at 20 (head suffix _20)): 0.9599
Th-T fluorescence, mean of three wells (Fig. 7a) (reading M125, compound at 50 (head suffix _50)): 0.4931
Th-T fluorescence, mean of three wells (Fig. 7a) (reading M126, compound at 10 (head suffix _10)): 1.704
Th-T fluorescence, mean of three wells (Fig. 7a) (reading M126, compound at 20 (head suffix _20)): 0.9491
Th-T fluorescence, mean of three wells (Fig. 7a) (reading M126, compound at 50 (head suffix _50)): 0.4978
Th-T fluorescence, mean of three wells (Fig. 7a) (reading M127, compound at 10 (head suffix _10)): 1.72
Th-T fluorescence, mean of three wells (Fig. 7a) (reading M127, compound at 20 (head suffix _20)): 0.9533
Th-T fluorescence, mean of three wells (Fig. 7a) (reading M127, compound at 50 (head suffix _50)): 0.4965
Th-T fluorescence, mean of three wells (Fig. 7a) (reading M128, compound at 10 (head suffix _10)): 1.676
Th-T fluorescence, mean of three wells (Fig. 7a) (reading M128, compound at 20 (head suffix _20)): 0.9486
Th-T fluorescence, mean of three wells (Fig. 7a) (reading M128, compound at 50 (head suffix _50)): 0.4971
Th-T fluorescence, mean of three wells (time-course reading M97): 1.027
Th-T fluorescence, mean of three wells (time-course reading M98): 1.0353
Th-T fluorescence, mean of three wells (time-course reading M99): 1.027
Th-T fluorescence, mean of three wells (time-course reading M100): 1.023
Th-T fluorescence, mean of three wells (time-course reading M101): 1.038
Th-T fluorescence, mean of three wells (time-course reading M102): 1.048
Th-T fluorescence, mean of three wells (time-course reading M103): 1.038
Th-T fluorescence, mean of three wells (time-course reading M104): 1.045
Th-T fluorescence, mean of three wells (time-course reading M105): 1.028
Th-T fluorescence, mean of three wells (time-course reading M106): 1.044
Th-T fluorescence, mean of three wells (time-course reading M107): 1.045
Th-T fluorescence, mean of three wells (time-course reading M108): 1.036
Th-T fluorescence, mean of three wells (time-course reading M109): 1.034
Th-T fluorescence, mean of three wells (time-course reading M110): 1.043
Th-T fluorescence, mean of three wells (time-course reading M111): 1.041
Th-T fluorescence, mean of three wells (time-course reading M112): 1.036
Th-T fluorescence, mean of three wells (time-course reading M113): 1.022
Th-T fluorescence, mean of three wells (time-course reading M114): 1.039
Th-T fluorescence, mean of three wells (time-course reading M115): 1.052
Th-T fluorescence, mean of three wells (time-course reading M116): 1.042
